# Source: US4134989A (Aziende Chimiche Riunite Angelini Francesco A.C.R.A.F. …, priority 1976, dated 1979)
# Read-outs that look alike come from different tables or passages of the source.
# Experiments:
# gastric mucosa = assay: Gastrointestinal tolerance: ulcerogenic activity in the gastric mucosa of rats; format: in vivo, Long-Evans rats
# Method: (§2) Experiments were done in Long-Evans rats of both sexes weighing 150-190 grams. The drugs were suspended in methyl-cellulose (0.5%) and given by gavage. The animals were fasted during the 8 hours before treatment and were sacrificed 18 hours later. They were autopsied and gastrointestinal lesions were scored according to the score system described by Cioli et al. (1967).
# [1] = tested on: carrageenin-induced paw edema; assay: Anti-edema activity: carrageenin-induced paw edema in rats (Winter et al.); format: in vivo, Long-Evans rats; design: Reduction of edema: unit not given here; conditions: for anti-inflammatory activity, comparison of the two drugs: carrageenin edema, rats, by gavage
# From the text: (§1) 3. Anti-inflammatory activity: In connection with the anti-inflammatory activity, both the anti-edema and analgesic activities were studied (namely, the ability to inhibit the painful response from inflamed tissues). The anti-edema activity was studied according to Winter et al. (1962). WINTER C. A., RISLEY E. A. and NUSS G. W., Carrageenin-induced edema in hind
# paw of the rat as an assay for anti-inflammatory drugs. Proc. Soc. Exp. Biol. Med. 111, 544-547, 1962. […]
# [2] = tested on: writhing reflexes induced by phenylquinone; assay: Analgesic activity: writhing reflexes induced by phenylquinone (Hendershot and Forsaith); format: in vivo, Swiss mice
# From the text: as §1
# The analgesic activity was studied according to Hendershot and Forsaith (1959). HENDERSHOT L. C. and FORSAITH J., Antagonism of the frequency of phenylquinone induced writhing in the mouse by weak analgesics and non-analgesics. J. Pharmacol. Exp. Ther. 125, 237-240, 1959. Swiss mice of both sexes weighing 18-22 grams were used.
# [3] = Pharmacokinetic study: serum samples after oral administration to rats; format: in vivo, Long-Evans rats
# Method: The test for the anti-tussive activity was done according to S[…]nd Pozzatti (1960) S[…]. and POZZATTI C., Anti-tussive activity and other pharmacological properties of six oxadiazoles. Arch. int. pharmacodyn. 129, 249-263, 1960. Since the details are given in this publication, it should only be recalled that the test is performed on guineapigs by using acrolein inhalation to produce cough. Male guinea pigs were used weighing 300-500 grams. The pharmacokinetic study was performed in Long-Evans rats of both sexes weighing 150 grams. […] The animals were sacrificed at
# time intervals and serum samples were taken. […] MIZUTANI M. and NAITO S., Studies on absorption and excretion of drugs. XXIX. Biopharmaceutical studies on guaiacol glycerol ether and related compounds. I. Blood level of guaiacol glycerol ether in rabbit and its binding with serum proteins. Chem. Pharm. Bull. 15, 1422-1426, 1967. Moreoever, ibuprofen and guaiacol were dosed according to the methods of Kaiser and […] (1974) and Mizutani and Naito (1967), respectively. KAISER, D. G. and […]. J., GLC determination of ibuprofen [(+)-2-(p-isobutylphenyl)propionic acid] in plasma. J. Pharm. Sci. 63, 219-221, 1974. MIZUTANI M. and NAITO S., Studies on absorption and excretion of drugs. XXIX. Biopharmaceutical studies on guaiacol glycerol ether and related compounds. […]
# intestine [4] = conditions: rat, in vivo, po
# Method: as §2
# in vivo = conditions: rat, po
# Method: Long-Evans rats of both sexes were used weighing 135-188 grams. The drugs were suspended in methyl-cellulose (0.5%) and given by gavage. Deaths were recorded during the two weeks following treatment. The LD50 was calculated according to Litchfield and Wilcoxon (1949).
# [5] = tested on: cough produced by acrolein inhalation; assay: Anti-tussive activity: cough produced by acrolein inhalation in guinea pigs (Silvestrini and Pozzatti); format: in vivo; conditions: Cavia porcellus, acrolein-induced cough
# Method: The test for the anti-tussive activity was done according to Silvestrini and Pozzatti (1960) […] B. and POZZATTI C., Anti-tussive activity and other pharmacological properties of six oxadiazoles. Arch. int. pharmacodyn. 129, 249-263, 1960. Since the details are given in this publication, it should only be recalled that the test is performed on guineapigs by using acrolein inhalation to produce cough. Male guinea pigs were used weighing 300-500 grams. The pharmacokinetic study was performed in Long-Evans rats of both sexes weighing 150 grams. […] The animals were sacrificed at […]
# [6] = Hydrolysis of GIH in the presence of serum
# [7] = Hydrolysis of GIH in the presence of artificial gastric juices
# intestine [8] = assay: Gastrointestinal tolerance: ulcerogenic activity on the intestine of rats; conditions: intestinal lesions, by gavage
# Method: as §2
structure (smiles),measurement,setting,value
"CC(C)Cc1ccc(C(C)C(=O)O)cc1 (single isomer, unassigned; (+)) [Ibuprofen, (+)-2-(p-isobutylphenyl)propionic acid, reference compound]",% of rats with ulcers,gastric mucosa; 16 mg/kg p.o.,11%
same,% of rats with ulcers,gastric mucosa; 25 mg/kg p.o.,33%
same,% of rats with ulcers,gastric mucosa; 75 mg/kg p.o.,43%
same,Reduction of edema,"[1]; 2.5 mg/kg p.o., 2 hours",17
same,Reduction of edema,"[1]; 2.5 mg/kg p.o., 4 hours",15
same,Reduction of edema,"[1]; 2.5 mg/kg p.o., 6 hours",3
same,Reduction of edema,"[1]; 5 mg/kg p.o., 2 hours",41
same,Reduction of edema,"[1]; 5 mg/kg p.o., 4 hours",31
same,Reduction of edema,"[1]; 5 mg/kg p.o., 6 hours",26
same,Reduction of edema,"[1]; 10 mg/kg p.o., 2 hours",57
same,Reduction of edema,"[1]; 10 mg/kg p.o., 4 hours",47
same,Reduction of edema,"[1]; 10 mg/kg p.o., 6 hours",36
same,"anti-inflammatory activity, comparison of the two drugs",[1],substantially the same anti-inflammatory activity
same,% reduction in number of writhings,[2]; 5 mg/kg p.o.,18%
same,% reduction in number of writhings,[2]; 10 mg/kg p.o.,46%
same,% reduction in number of writhings,[2]; 20 mg/kg p.o.,52%
same,presence in serum samples of rats treated with GIH,[3],found in the serum samples
same,% of rats with ulcers,intestine [4]; 16 mg/kg,0%
same,% of rats with ulcers,intestine [4]; 25 mg/kg,20%
same,% of rats with ulcers,intestine [4]; 75 mg/kg,63%
same,LD50 at 336 h,in vivo,640 mg/kg
"COc1ccc2c3c1O[C@H]1[C@@H](O)C=C[C@H]4[C@@H](C2)N(C)CC[C@@]341 [codein, reference compound]",minimal effective dose,[5]; ip,2.5 mg/kg
"COc1ccccc1OC(=O)C(C)c1ccc(CC(C)C)cc1 (stereo not shown) [GIH, guaiacol p-isobutyl hydratropate]",% of rats with ulcers,gastric mucosa; 25 mg/kg p.o.,0%
same,% of rats with ulcers,gastric mucosa; 38 mg/kg p.o.,10%
same,% of rats with ulcers,gastric mucosa; 112 mg/kg p.o.,33%
same,effect on the gastric mucosa compared with ibuprofen,"gastric mucosa; rats, by gavage",less toxic than ibuprofen
same,Reduction of edema,"[1]; 1.9 mg/kg p.o., 2 hours",22
same,Reduction of edema,"[1]; 1.9 mg/kg p.o., 4 hours",12
same,Reduction of edema,"[1]; 1.9 mg/kg p.o., 6 hours",1
same,Reduction of edema,"[1]; 3.8 mg/kg p.o., 2 hours",33
same,Reduction of edema,"[1]; 3.8 mg/kg p.o., 4 hours",26
same,Reduction of edema,"[1]; 3.8 mg/kg p.o., 6 hours",17
same,Reduction of edema,"[1]; 7.5 mg/kg p.o., 2 hours",41
same,Reduction of edema,"[1]; 7.5 mg/kg p.o., 4 hours",28
same,Reduction of edema,"[1]; 7.5 mg/kg p.o., 6 hours",27
same,Reduction of edema,"[1]; 15 mg/kg p.o., 2 hours",50
same,Reduction of edema,"[1]; 15 mg/kg p.o., 4 hours",45
same,Reduction of edema,"[1]; 15 mg/kg p.o., 6 hours",43
same,"anti-inflammatory activity, comparison of the two drugs",[1],substantially the same anti-inflammatory activity
same,% reduction in number of writhings,[2]; 1.9 mg/kg p.o.,11%
same,% reduction in number of writhings,[2]; 3.8 mg/kg p.o.,28%
same,% reduction in number of writhings,[2]; 7.5 mg/kg p.o.,37%
same,% reduction in number of writhings,[2]; 15 mg/kg p.o.,43%
same,% reduction in number of writhings,[2]; 30 mg/kg p.o.,55%
same,minimal effective dose,[5]; po,25 mg/kg
same,% of rats with ulcers,intestine [4]; 25 mg/kg,0%
same,% of rats with ulcers,intestine [4]; 38 mg/kg,20%
same,% of rats with ulcers,intestine [4]; 112 mg/kg,33%
same,LD50 at 336 h,in vivo,1650 mg/kg
same,hydrolysis,[6],rapidly hydrolyzed into ibuprofen and guaiacol
same,hydrolysis,[7],no hydrolysis occurs
same,gastrointestinal toxicity compared with ibuprofen,intestine [8],less toxic than ibuprofen
